According to the SangsterLogP compilation:

Conditions: not given
In the case of `CNC(=S)NNc1ccccc1`, the logP is reported as 1.17. `CCCOCCN(C(=O)CCl)c1c(CC)cccc1CC` showed a logP of 4.08. Compound `Nc1nc(=O)cc[nH]1` has a logP of -0.99. With `CC1COC(=O)O1` (stereo not drawn) the logP was -0.41. `N#CC(CCc1ccc(Cl)cc1)(Cn1cncn1)c1ccccc1` (stereo not drawn) showed a logP of 3.23. Compound `COC1=C(N2CC2)C(=O)C(OC)=C(N2CC2)C1=O` has a logP of 0.17. `O=C1CC(c2ccc(C(F)(F)F)cc2)Cc2c1c(=O)c1cc(Cl)ccc1n2O` (stereo not drawn) gave a logP of 3.46. Compound `NC(=O)OCCC1=C(N2CC2)C(=O)C(Br)=C(N2CC2)C1=O` has a logP of 0.68. Compound `CCNC(=O)c1ccoc1` has a logP of 0.72. Work on `Cn1c(N)nc2cc(C#N)ccc21` yielded a logP of 1.11. `COC(=O)CC(=O)OC` gave a logP of -0.05. `OCCCCl` showed a logP of 0.5. Work on `O=C(O)Cn1ccnc1[N+](=O)[O-]` yielded a logP of -0.34. In the case of `Cc1ccc(C)[nH]1`, the logP is reported as 1.47. In the case of `Cc1c(Cl)cc(-c2ccc(=O)[nH]n2)cc1Cl`, the logP is reported as 3.2. `CS(=O)(=O)N1C(=O)c2ccc(N)cc2C1=O` gave a logP of 0.8. `Nc1ccc2c(c1)C(=O)N(O)C2=O` showed a logP of 0.16. `C=CCOC(C)=O` gave a logP of 0.97. With `Cc1ccno1` the logP was 0.45. In the case of `c1ccc2c(c1)Oc1ccccc1S2`, the logP is reported as 4.54. Work on `CC(=O)OC(C)(C)C` yielded a logP of 1.76. `CC(C)[C@H](NC(=O)[C@H](Cc1ccccc1)NC(=O)OC(C)(C)C)C(=O)O` gave a logP of 2.88. `CC1(O)CCCCC1` showed a logP of 1.33. `COc1ccc(CC#N)cc1OC` gave a logP of 1.15. Work on `c1ccc2c(c1)CCCC2` yielded a logP of 3.49. `NC(=O)Cc1cccs1` showed a logP of 0.33. `CCCC(=O)OC` showed a logP of 1.29. In the case of `N#CCc1ccc([N+](=O)[O-])cc1`, the logP is reported as 1.37. With `CC12CC(O)C3C(CCC4(O)CC(O)CC(O)C34CO)C1(O)CCC2C1=CC(=O)OC1` (stereo not drawn) the logP was -0.02. Compound `CNC1=CC(=O)c2ccccc2C1=O` has a logP of 1.74. In the case of `c1ccc(CCCc2ccccc2)cc1`, the logP is reported as 3.43. For `CN(C)/C=C/C#N`, the logP was 0.47. Compound `Cc1ccc(O)c(-n2nc3ccccc3n2)c1` has a logP of 4.31. Compound `C/C=C/C(C)=O` has a logP of 0.52. With `CC(=O)OC(C)c1ccccc1` (stereo not drawn) the logP was 2.3.

Same assay, conditions: pH 1.0
With `CCOc1ccc(C(=O)O)cc1OCC` the logD was 2.37. For `O=C(O)CCCl`, the logD was 0.41. In the case of `CC(C)(CCC(=O)O)C(=O)O`, the logD is reported as 0.67. `CCC(C)C#N` (stereo not drawn) showed a logD of 1.1. With `CC1CC(C(=O)O)=C(C(=O)O)C(C)C1` (stereo not drawn) the logD was 1.53. `CC(C)CC#N` showed a logD of 1.07. In the case of `O=C(O)CCCOc1ccc(Cl)cc1Cl`, the logD is reported as 3.53.

Same assay, conditions: pH 2.1
In the case of `CCCCCCOc1ccc(S(N)(=O)=O)cc1[N+](=O)[O-]`, the logD is reported as 3.03.

Same assay, conditions: pH 4.0
`CC(C)=NNc1c([N+](=O)[O-])cc(C(F)(F)F)cc1[N+](=O)[O-]` showed a logD of 3.2.

Same assay, conditions: pH 4.2
For `NC(=O)c1nc[nH]c1N=NN(CCO)CCO`, the logD was -1.04.

Same assay, conditions: pH 5.0
Work on `c1n[nH]c2c1CC[C@H]1c3[nH]ncc3CC[C@H]21` yielded a logD of 0.3.

Same assay, conditions: pH 6.3
In the case of `CC(C)N(C)/N=N/c1ccc(C(N)=O)cc1`, the logD is reported as 2.02.

Same assay, conditions: pH 7.0
Compound `Nc1nc2c(ncn2[C@@H]2O[C@H](CO)[C@@H](O)[C@@H]2F)c(=O)[nH]1` has a logD of -1.18. Work on `Nc1nc(=O)n([C@H]2CC[C@@H](CO)O2)cc1Br` yielded a logD of -0.48. `COc1ccc2c(c1OC)-c1ccc(OC)c(=O)cc1[C@@H](NC(C)=O)CC2` showed a logD of 1.02. Work on `CCCCN(CC)c1c([N+](=O)[O-])cc(C(F)(F)F)cc1[N+](=O)[O-]` yielded a logD of 5.29.

Same assay, conditions: pH 7.4
`Cn1c(N)nc2ncc(-c3ccccc3)cc21` showed a logD of 2.23. `Cc1ncc([N+](=O)[O-])n1CC(O)CCl` (stereo not drawn) showed a logD of 0.58. With `Cn1c([N+](=O)[O-])cnc1C=NNC(N)=S` the logD was 0.65. `O=C1CN=C(c2ccccc2F)c2cc(Br)ccc2N1` gave a logD of 2.98. Work on `Nc1ccc2nc3ccccn3c2n1` yielded a logD of 1.38. Work on `CN1C(=O)CN=C(c2ccccc2C(F)(F)F)c2cc([N+](=O)[O-])ccc21` yielded a logD of 2.45. `O=C(NC(F)(F)F)c1cccc2cccnc12` gave a logD of 3.24. Compound `COC(=O)c1ccc(-c2ncc([N+](=O)[O-])n2C)cc1` has a logD of 1.63. `Nc1ncc(Cc2ccccc2O)c(N)n1` showed a logD of 0.82. Work on `Cc1cc(CCCCCCCOc2ccc(C3=NCCO3)cc2)on1` yielded a logD of 4.79. Work on `Cc1cc(=O)[nH]c(=O)[nH]1` yielded a logD of -0.77. In the case of `CCc1ccc([N+](=O)[O-])cc1`, the logD is reported as 3.03. `c1ccc(C23CCCN2CCO3)cc1` (stereo not drawn) showed a logD of 1.04. `CN1C(=O)CN=C(c2ccccc2)c2cc(C#N)ccc21` gave a logD of 1.8. For `Cn1c([N+](=O)[O-])cnc1-c1ccc(N)cc1`, the logD was 1.06. Work on `ICCI` yielded a logD of 2.71. With `CCCc1ncc([N+](=O)[O-])n1CCNC(=S)OC` the logD was 1.94. `CC(C)(C)c1ccc(N)cc1` gave a logD of 2.7. For `OCc1ccc2cccnc2c1`, the logD was 1.29. With `CCOc1cccc2cccnc12` the logD was 2.25. Work on `O=[N+]([O-])c1ncn(CC(F)(F)CO)n1` yielded a logD of -0.21.

Same assay, conditions: pH 9.0
For `NC(=O)c1nc[nH]c1N`, the logD was -1.1.

Same assay, conditions: pH 9.8
Compound `c1ccc(C2CN3CCSC3=N2)cc1` (stereo not drawn) has a logD of 1.84.

Same assay, conditions: pH 10.6
For `C=CCN1CCc2nc(N)sc2CC1`, the logD was 1.48.

Same assay, conditions: pH 11.0
In the case of `C[C@@H]([C@H](O)c1ccccc1)N(C)C`, the logD is reported as 1.7.

Same assay, conditions: pH 13.0
Work on `Cc1ccc(Cc2cnc(N)nc2N)c(C)c1N` yielded a logD of 1.12. `CC(=O)c1ccc(N2CCCCC2)cc1` showed a logD of 3.13. With `CNCCO` the logD was -0.94. `CCN(CC)CCN` gave a logD of 0.21. With `CC(C)NC(C)(C)C` the logD was 1.56. `C[C@@H]1CCC[C@H](C)N1` showed a logD of 1.53. With `COc1ccc(Oc2cnc(N)nc2N)c(OC)c1OC` the logD was 0.9.
